Laboratory results as given in patent US20100041972A1, “APPARATUS AND METHODS” (priority 2006, published 2010).

Columns and labels:
rat dorsal raphe = test: MEA recording of neuronal firing in rat dorsal raphe slice; assay type: cell-based; conditions: channels 34, 43, 48 and 57; heterogeneity noted
Protocol: Wistar rats or mice obtained from Charles River were sacrificed by cervical dislocation. The brain was rapidly removed and a block of tissue containing the relevant area was prepared. Brain tissue was glued onto a glass slide using cyanoacryalate glue (Permabond C2). The block was supported by a similar sized block of agar (3% in NaCl, 126 mM) glued immediately behind the brain block. Coronal slices (300 μm thick) of the relevant brain slice were cut from the brain using a Vibratome™ (Oxford Instruments, supplied by Intracel, Unit 4, Station Road, Shepreth, Royston. Herts. UK). The slices were transferred to artificial cerebrospinal fluid (ACSF) which contained (in mM): NaCl 126, KCl 5, NaH2PO4 1.24, CaCl2 2.4, MgCl2 1.3, NaHCO3 26, glucose 10, at pH 7.4, continuously bubbled with ‘carbogen’ (95% O2/5% CO2) and maintained at room temperature. […]
Extracelular action potentials were recorded from either isolated neurones, or several neurones per electrode. […]
All spike waveforms or LFP ‘events’ that crossed a pre-set voltage threshold (−12 and −8 pV respectively) were stored as both ‘time-stamps’ (i.e. ‘time of occurrence’), and as ‘spike cut-outs’ (i.e. digitised waveform prior to, and after threshold crossing). All experimental data were recorded directly on to hard disk, and backed up onto various means of data archiving. […]

[1] = system: olfactory bulb mitral cells; test: Acute in vivo MEA recording of odour response in olfactory bulb; parameters: species or system male Wistar rats; conditions: odour at 5.42×10^−6 M in breathing air, urethane anaesthesia
Text: Multi-electrode array recordings from olfactory bulb mitral cells (5×5 array). 1. Spontaneous population burst. 2. Control, no odour. 3. Arnyl acetate. 4. N-butanol. 5. Cineole. 6. Pinene. 7. DL-Camphor. 8. Linalool (max response). 9. Linalool “off response”. […] The results are shown as peak odour response neuronal activity maps in olfactory bulb. These records were from male Wistar rats (400 g) anaesthetized with urethane and secured in a stereotaxic unit). The NeuroZonds MEAs of the invention penetrated the left olfactory bulbs horizontally (after left enucleation). The odours were presented in the animals breathing air under the control of the normal breathing cycle (detected by thermistor probe in mask), diluted from stock in pure nitrogen. The concentrations of odourants were determined according to the relative saturation vapour pressures of the odourants at particular temperatures via a custom-built ‘olfactometer’.

Row | Compound | neuronal firing, effect of XE-991 after retigabine (rat dorsal raphe) | spatiotemporal dynamics of odour response [1]
1 | O=C1c2ccccc2C(Cc2ccncc2)(Cc2ccncc2)c2ccccc21 [XE-991] | recovery of retigabine inhibition | 
2 | pinene |  | marked “off response”
